# Molecular target: EP4 (Homo sapiens, UniProt P35408)
# Assay: EP4 Antagonism by CRE-PLAP Reporter Assay (SE302 cells, PGE2-stimulated)
# Type: cell-based
# Parameters: HEK293 cells express endogenous EP4; endogenous in cells; host or cells: SE302 (HEK293 clone with CRE-PLAP reporter)
# Conditions: SE302 (HEK293) cells, 3 ng/mL PGE2, overnight; single or multiple assay average values
# In short: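 HEK293-derived SE302 cells with endogenous EP4 and CRE-driven secreted PLAP, in serum-free medium with 0.1% BSA, stimulated overnight with 3 ng/mL PGE2 plus compound. Supernatant PLAP read by luminescence (pH 11 carbonate buffer, 2 h). IC50 from % of control, normalized to DMSO with and without PGE2.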
# Sequence of EP4 (P35408 whole entry): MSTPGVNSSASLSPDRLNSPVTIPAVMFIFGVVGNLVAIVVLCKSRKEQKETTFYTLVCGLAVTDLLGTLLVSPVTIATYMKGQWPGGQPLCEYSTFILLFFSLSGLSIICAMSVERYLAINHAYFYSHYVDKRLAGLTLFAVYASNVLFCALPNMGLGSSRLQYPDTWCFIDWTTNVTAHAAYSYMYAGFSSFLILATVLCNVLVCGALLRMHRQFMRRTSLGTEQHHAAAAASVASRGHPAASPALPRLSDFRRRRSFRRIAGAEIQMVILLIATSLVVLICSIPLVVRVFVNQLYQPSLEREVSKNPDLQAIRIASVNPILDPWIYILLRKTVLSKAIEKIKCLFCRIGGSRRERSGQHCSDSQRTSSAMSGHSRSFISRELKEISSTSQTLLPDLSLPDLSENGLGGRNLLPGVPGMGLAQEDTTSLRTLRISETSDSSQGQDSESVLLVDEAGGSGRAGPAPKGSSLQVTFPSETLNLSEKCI
row,Structure (SMILES),IC50 [nM]
1,"C[C@H](NC(=O)c1c(C(F)(F)F)nn2c1N(Cc1cccc(COCCF)c1)CC2)c1ccc(C(=O)O)cc1 [Compound 74, (S)-4-(1-(1-(3-((2-fluoroethoxy)methyl)benzyl)-6-(trifluoromethyl)-2,3-dihydro-1H-imidazo[1,2-b]pyrazole-7-carboxamido)ethyl)benzoic Acid]",28
2,"Cc1cc([C@H](C)NC(=O)c2c(C(F)(F)F)nn3c2N(Cc2ccc(C(F)(F)F)cc2)CC3)ccc1-c1nn[nH]n1 [Compound 58, (S)—N-(1-(3-methyl-4-(2H-tetrazol-5-yl)phenyl)ethyl)-6-(trifluoromethyl)-1-(4-(trifluoromethyl)benzyl)-2,3-dihydro-1H-imidazo[1,2-b]pyrazole-7-carboxamide]",4.71
3,"C[C@H](NC(=O)c1c(C(F)(F)F)nn2c1N(Cc1cccc(C(F)(F)F)c1)CC2)c1ccc(C(=O)NS(C)(=O)=O)cc1 [Compound 55, (S)—N-(1-(4-((methylsulfonyl)carbamoyl)phenyl)ethyl)-6-(trifluoromethyl)-1-(3-(trifluoromethyl)benzyl)-2,3-dihydro-1H-imidazo[1,2-b]pyrazole-7-carboxamide]",39.3
4,"O=C(O)c1ccc([C@H](CO)NC(=O)c2c(C(F)(F)F)nn3c2N(Cc2cccc(C(F)(F)F)c2)CC3)cc1 [Compound 87, (R)-4-(2-hydroxy-1-(6-(trifluoromethyl)-1-(3-(trifluoromethyl)benzyl)-2,3-dihydro-1H-imidazo[1,2-b]pyrazole-7-carboxamido)ethyl)benzoic Acid]",34.7
5,"C[C@H](NC(=O)c1c(C(F)(F)F)nn2c1N(c1ccc(C(F)(F)F)cc1)CCC2)c1ccc(C(=O)O)cc1 [Compound 51, (S)-4-(1-(2-(trifluoromethyl)-4-(4-(trifluoromethyl)phenyl)-4,5,6,7-tetrahydropyrazolo[1,5-a]pyrimidine-3-carboxamido)ethyl)benzoic Acid]",100
6,"C=C1CCC(CN2CCn3nc(C(F)(F)F)c(C(=O)N[C@@H](C)c4ccc(C(=O)O)cc4)c32)CC1 [Compound 79, (S)-4-(1-(1-((4-methylenecyclohexyl)methyl)-6-(trifluoromethyl)-2,3-dihydro-1H-imidazo[1,2-b]pyrazole-7-carboxamido)ethyl)benzoic acid]",18.9

# More lines, now with the values ahead:
row,IC50 [nM],Structure (SMILES)
1,0.64,"Cc1cccc(CN2CCn3nc(C(F)(F)F)c(C(=O)N[C@@H](C)c4ccc(C(=O)O)cc4)c32)c1 [Compound 18, (S)-4-(1-(1-(3-methylbenzyl)-6-(trifluoromethyl)-2,3-dihydro-1H-imidazo[1,2-b]pyrazole-7-carboxamido)ethyl)benzoic Acid]"
2,1.91,"C[C@H](NC(=O)c1c(C(F)(F)F)nn2c1N(Cc1ccc(C(F)(F)F)cc1)CC2)c1ccc(C(=O)O)cc1F [Compound 22, (S)-3-fluoro-4-(1-(6-(trifluoromethyl)-1-(4-(trifluoromethyl)benzyl)-2,3-dihydro-1H-imidazo[1,2-b]pyrazole-7-carboxamido)ethyl)benzoic Acid]"
3,4.66,"C[C@H](NC(=O)c1c(C(F)(F)F)nn2c1N(Cc1cccc(OCCF)c1)CC2)c1ccc(C(=O)O)cc1 [Compound 75, (S)-4-(1-(1-(3-(2-fluoroethoxy)benzyl)-6-(trifluoromethyl)-2,3-dihydro-1H-imidazo[1,2-b]pyrazole-7-carboxamido)ethyl)benzoic Acid]"
4,0.358,"C[C@H](NC(=O)c1c(C(F)(F)F)nn2c1N(Cc1cc(F)cc(C(F)(F)F)c1)CC2)c1ccc(C(=O)O)cc1 [Compound 84, (S)-4-(1-(1-(3-fluoro-5-(trifluoromethyl)benzyl)-6-(trifluoromethyl)-2,3-dihydro-1H-imidazo[1,2-b]pyrazole-7-carboxamido)ethyl)benzoic acid]"
5,0.866,"C[C@H](NC(=O)c1c(C(F)(F)F)nn2c1N(Cc1cccc(CCCF)c1)CC2)c1ccc(C(=O)O)cc1 [Compound 96, (S)-4-(1-(1-(3-(3-Fluoropropyl)benzyl)-6-(trifluoromethyl)-2,3-dihydro-1H-imidazo[1,2-b]pyrazole-7-carboxamido)ethyl)benzoic Acid]"

# — patent US11434246B2, “EP4 antagonists” (Eisai R&D Management Co., Ltd., priority 2015, dated 2022)
